Active and inactive are the calls of the source. The rule behind the calls is not given here.
Tests used:
[1] = target: 3-phosphoinositide-dependent protein kinase 1 (Homo sapiens) (UniProt O15530); assay: Inhibition of PDK1(h) at 10.0 µM in the Eurofins Kinase panel; conditions: Compound concentration 10.0 uM
[2] = target: Serine/threonine-protein kinase PAK 4 (Homo sapiens) (UniProt O96013); assay: Inhibition of PAK4(h) at 10.0 µM in the Eurofins Kinase panel; conditions: Compound concentration 10.0 uM
[3] = target: CDK4/Cyclin D3 (Homo sapiens) (UniProt P11802+P30281); assay: Inhibition of CDK4/cyclinD3(h) at 10.0 µM in the Eurofins Kinase panel; format: protein-complex assay; conditions: Compound concentration 10.0 uM
[4] = target: Phosphatidylinositol 4,5-bisphosphate 3-kinase catalytic subunit gamma isoform (Homo sapiens) (UniProt P48736); assay: Inhibition of PI3 Kinase (p120g)(h) at 10.0 µM in the Eurofins Kinase panel; conditions: Compound concentration 10.0 uM
[5] = target: Protein-tyrosine kinase 2-beta (Homo sapiens) (UniProt Q14289); assay: Inhibition of Pyk2(h) at 10.0 µM in the Eurofins Kinase panel; conditions: Compound concentration 10.0 uM
Sequence of Protein-tyrosine kinase 2-beta (Homo sapiens) (Q14289 whole entry, looked up): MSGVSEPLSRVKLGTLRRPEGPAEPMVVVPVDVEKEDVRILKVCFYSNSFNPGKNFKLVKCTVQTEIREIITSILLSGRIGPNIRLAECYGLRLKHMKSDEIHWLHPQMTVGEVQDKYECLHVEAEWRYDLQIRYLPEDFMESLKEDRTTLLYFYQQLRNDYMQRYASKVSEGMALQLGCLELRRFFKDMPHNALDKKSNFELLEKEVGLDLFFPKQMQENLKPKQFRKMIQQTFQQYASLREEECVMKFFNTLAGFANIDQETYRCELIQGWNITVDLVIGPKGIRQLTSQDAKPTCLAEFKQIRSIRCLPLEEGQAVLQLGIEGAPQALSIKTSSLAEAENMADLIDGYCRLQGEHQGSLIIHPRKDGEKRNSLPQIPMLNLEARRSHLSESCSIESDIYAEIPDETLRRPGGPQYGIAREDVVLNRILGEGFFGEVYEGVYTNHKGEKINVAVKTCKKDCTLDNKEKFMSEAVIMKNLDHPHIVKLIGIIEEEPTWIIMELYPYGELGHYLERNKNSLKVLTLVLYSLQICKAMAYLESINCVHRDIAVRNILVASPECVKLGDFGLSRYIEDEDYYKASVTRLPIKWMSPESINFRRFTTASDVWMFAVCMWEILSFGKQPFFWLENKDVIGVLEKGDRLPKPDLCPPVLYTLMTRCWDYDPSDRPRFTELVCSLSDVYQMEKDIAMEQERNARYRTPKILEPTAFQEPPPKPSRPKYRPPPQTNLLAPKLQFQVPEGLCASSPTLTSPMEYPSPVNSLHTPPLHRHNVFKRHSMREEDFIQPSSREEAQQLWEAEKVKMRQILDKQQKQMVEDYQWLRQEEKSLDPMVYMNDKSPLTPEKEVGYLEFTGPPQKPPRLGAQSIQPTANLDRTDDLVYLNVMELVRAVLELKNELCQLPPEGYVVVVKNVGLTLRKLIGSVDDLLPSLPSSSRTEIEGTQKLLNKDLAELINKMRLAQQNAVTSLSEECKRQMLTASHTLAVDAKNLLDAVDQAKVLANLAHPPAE

[6] = target: Epidermal growth factor receptor (Homo sapiens) (UniProt P00533); assay: Inhibition of EGFR(h) at 10.0 µM in the Eurofins Kinase panel; conditions: Compound concentration 10.0 uM
[7] = target: Mitogen-activated protein kinase kinase kinase 8 (Homo sapiens) (UniProt P41279); assay: Inhibition of COT(h) at 10.0 µM in the Eurofins Kinase panel; conditions: Compound concentration 10.0 uM
[8] = target: Vascular endothelial growth factor receptor 2 (Homo sapiens) (UniProt P35968); assay: Inhibition of KDR(h) at 10.0 µM in the Eurofins Kinase panel; conditions: Compound concentration 10.0 uM
[9] = target: Serine/threonine-protein kinase N1 (Homo sapiens) (UniProt Q16512); assay: Inhibition of PRK1(h) at 10.0 µM in the Eurofins Kinase panel; conditions: Compound concentration 10.0 uM
[10] = target: Dual specificity mitogen-activated protein kinase kinase 2 (Homo sapiens) (UniProt P36507); assay: Inhibition of MEK2(h) at 10.0 µM in the Eurofins Kinase panel; conditions: Compound concentration 10.0 uM
Sequence of Dual specificity mitogen-activated protein kinase kinase 2 (Homo sapiens) (P36507 whole entry): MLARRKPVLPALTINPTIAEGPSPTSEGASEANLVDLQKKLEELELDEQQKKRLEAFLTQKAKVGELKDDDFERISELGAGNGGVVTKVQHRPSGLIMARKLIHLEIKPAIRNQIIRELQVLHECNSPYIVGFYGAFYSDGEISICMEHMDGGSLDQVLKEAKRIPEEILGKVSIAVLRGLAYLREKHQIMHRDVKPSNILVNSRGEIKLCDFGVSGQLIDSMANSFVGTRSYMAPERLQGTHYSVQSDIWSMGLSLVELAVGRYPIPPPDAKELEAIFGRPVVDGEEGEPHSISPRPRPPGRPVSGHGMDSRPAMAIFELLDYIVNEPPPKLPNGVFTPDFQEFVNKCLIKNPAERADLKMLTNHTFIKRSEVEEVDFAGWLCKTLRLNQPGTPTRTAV

[11] = target: TGF-beta receptor type-2 (Homo sapiens) (UniProt P37173); assay: Inhibition of TGFBR2(h) at 10.0 µM in the Eurofins Kinase panel; conditions: Compound concentration 10.0 uM
Sequence of TGF-beta receptor type-2 (Homo sapiens) (P37173 whole entry): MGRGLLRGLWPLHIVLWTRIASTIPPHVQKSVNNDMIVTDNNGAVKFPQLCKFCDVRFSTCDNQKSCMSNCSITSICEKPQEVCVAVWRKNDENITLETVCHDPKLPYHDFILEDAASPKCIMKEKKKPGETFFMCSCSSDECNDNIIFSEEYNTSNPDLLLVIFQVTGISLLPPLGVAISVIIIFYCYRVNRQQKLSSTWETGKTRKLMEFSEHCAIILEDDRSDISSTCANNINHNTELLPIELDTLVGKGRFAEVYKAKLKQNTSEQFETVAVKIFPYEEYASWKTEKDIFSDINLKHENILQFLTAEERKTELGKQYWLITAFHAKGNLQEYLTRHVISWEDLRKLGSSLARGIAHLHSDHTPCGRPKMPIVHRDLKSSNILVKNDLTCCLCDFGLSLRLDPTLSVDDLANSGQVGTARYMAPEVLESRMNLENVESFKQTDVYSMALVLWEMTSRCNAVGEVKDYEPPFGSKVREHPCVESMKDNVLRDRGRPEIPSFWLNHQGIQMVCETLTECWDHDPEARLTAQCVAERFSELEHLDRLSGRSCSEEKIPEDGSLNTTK

[12] = target: 5-hydroxytryptamine receptor 7 (Homo sapiens) (UniProt P34969); conditions: Compound concentration 10.0 uM
Sequence of 5-hydroxytryptamine receptor 7 (Homo sapiens) (P34969 whole entry): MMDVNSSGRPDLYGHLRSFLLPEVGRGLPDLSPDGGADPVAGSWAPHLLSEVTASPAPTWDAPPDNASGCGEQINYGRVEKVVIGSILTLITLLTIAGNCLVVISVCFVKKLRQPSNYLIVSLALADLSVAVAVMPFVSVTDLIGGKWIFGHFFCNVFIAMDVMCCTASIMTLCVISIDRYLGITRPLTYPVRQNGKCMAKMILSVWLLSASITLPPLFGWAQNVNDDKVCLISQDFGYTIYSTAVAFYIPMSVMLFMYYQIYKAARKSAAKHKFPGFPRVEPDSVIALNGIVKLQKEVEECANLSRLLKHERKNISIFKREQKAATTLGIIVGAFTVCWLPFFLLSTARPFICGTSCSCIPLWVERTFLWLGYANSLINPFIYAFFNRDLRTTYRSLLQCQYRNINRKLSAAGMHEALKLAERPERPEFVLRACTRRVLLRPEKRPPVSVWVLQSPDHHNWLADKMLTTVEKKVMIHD

[13] = target: T1, Muscarinic acetylcholine receptor M4 (Homo sapiens) (UniProt P08173); conditions: Compound concentration 10.0 uM
T1 sequence (whole entry): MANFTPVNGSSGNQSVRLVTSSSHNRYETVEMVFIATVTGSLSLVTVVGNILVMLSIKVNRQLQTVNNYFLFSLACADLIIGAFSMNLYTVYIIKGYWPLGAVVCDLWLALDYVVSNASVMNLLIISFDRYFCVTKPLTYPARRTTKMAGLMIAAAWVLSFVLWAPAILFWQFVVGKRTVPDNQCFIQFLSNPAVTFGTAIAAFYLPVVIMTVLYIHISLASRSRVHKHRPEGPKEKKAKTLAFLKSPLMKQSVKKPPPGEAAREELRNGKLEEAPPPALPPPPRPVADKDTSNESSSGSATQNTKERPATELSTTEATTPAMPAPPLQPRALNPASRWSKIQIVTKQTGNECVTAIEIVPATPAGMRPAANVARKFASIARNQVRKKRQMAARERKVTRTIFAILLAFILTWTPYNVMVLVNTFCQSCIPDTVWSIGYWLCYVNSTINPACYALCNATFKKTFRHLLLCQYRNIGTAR

[14] = target: Serine/threonine-protein kinase PAK 6 (Homo sapiens) (UniProt Q9NQU5); assay: Inhibition of PAK6(h) at 10.0 µM in the Eurofins Kinase panel; conditions: Compound concentration 10.0 uM
[15] = target: T2, Alpha-2C adrenergic receptor (Homo sapiens) (UniProt P18825); conditions: Compound concentration 10.0 uM
T2 sequence (whole entry): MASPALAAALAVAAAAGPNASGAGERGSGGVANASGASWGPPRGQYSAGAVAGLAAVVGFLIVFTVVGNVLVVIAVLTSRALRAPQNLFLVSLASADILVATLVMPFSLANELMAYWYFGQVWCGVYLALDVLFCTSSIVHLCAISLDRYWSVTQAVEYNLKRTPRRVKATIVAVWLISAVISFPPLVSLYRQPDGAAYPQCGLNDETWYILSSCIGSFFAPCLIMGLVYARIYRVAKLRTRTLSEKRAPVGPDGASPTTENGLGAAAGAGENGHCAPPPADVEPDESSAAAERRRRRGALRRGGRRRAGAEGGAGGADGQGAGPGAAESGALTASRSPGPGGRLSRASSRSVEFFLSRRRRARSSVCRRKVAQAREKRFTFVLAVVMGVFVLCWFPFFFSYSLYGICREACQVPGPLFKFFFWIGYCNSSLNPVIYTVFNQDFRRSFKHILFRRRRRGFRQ

[16] = target: Cyclin-dependent kinase-like 1 (Homo sapiens) (UniProt Q00532); assay: Inhibition of CDKL1(h) at 10.0 µM in the Eurofins Kinase panel; conditions: Compound concentration 10.0 uM
Sequence of Cyclin-dependent kinase-like 1 (Homo sapiens) (Q00532 whole entry): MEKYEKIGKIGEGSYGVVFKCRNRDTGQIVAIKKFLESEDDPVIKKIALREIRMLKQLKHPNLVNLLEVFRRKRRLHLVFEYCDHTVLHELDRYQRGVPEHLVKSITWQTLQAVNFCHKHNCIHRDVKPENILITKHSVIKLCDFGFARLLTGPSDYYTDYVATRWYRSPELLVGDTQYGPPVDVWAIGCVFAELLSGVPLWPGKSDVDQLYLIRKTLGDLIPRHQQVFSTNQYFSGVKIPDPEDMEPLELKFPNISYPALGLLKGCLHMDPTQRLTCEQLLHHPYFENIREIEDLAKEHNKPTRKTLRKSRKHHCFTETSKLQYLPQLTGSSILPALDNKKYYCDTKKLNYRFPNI

[17] = target: Receptor-type tyrosine-protein kinase FLT3 (Homo sapiens) (UniProt P36888); assay: Inhibition of Flt3(h) at 10.0 µM in the Eurofins Kinase panel; conditions: Compound concentration 10.0 uM
[18] = target: Serine/threonine-protein kinase PRP4 homolog (Homo sapiens) (UniProt Q13523); assay: Inhibition of PRP4(h) at 10.0 µM in the Eurofins Kinase panel; conditions: Compound concentration 10.0 uM
Vasopressin V1b receptor = Vasopressin V1b receptor (Homo sapiens, UniProt P47901); assay: Radiometric AVPR1B binding assay (Eurofins #287560)
[19] = target: Dual specificity protein kinase TTK (Homo sapiens) (UniProt P33981); assay: Inhibition of TTK(h) at 10.0 µM in the Eurofins Kinase panel; conditions: Compound concentration 10.0 uM
[20] = target: Serine/threonine-protein kinase DCLK2 (Homo sapiens) (UniProt Q8N568); assay: Inhibition of DCAMKL2(h) at 10.0 µM in the Eurofins Kinase panel; conditions: Compound concentration 10.0 uM
Vasopressin V1a receptor = Vasopressin V1a receptor (Homo sapiens, UniProt P37288); assay: Inhibition of Vasopressin V1A at 10.0 µM in the Eurofins-Panlabs selectivity screen
[21] = target: Serine/threonine-protein kinase MAK (Homo sapiens) (UniProt P20794); assay: Inhibition of MAK(h) at 10.0 µM in the Eurofins Kinase panel; conditions: Compound concentration 10.0 uM
[22] = target: Beta-3 adrenergic receptor (Homo sapiens) (UniProt P13945); conditions: Compound concentration 10.0 uM
Sequence of Beta-3 adrenergic receptor (Homo sapiens) (P13945 whole entry, looked up): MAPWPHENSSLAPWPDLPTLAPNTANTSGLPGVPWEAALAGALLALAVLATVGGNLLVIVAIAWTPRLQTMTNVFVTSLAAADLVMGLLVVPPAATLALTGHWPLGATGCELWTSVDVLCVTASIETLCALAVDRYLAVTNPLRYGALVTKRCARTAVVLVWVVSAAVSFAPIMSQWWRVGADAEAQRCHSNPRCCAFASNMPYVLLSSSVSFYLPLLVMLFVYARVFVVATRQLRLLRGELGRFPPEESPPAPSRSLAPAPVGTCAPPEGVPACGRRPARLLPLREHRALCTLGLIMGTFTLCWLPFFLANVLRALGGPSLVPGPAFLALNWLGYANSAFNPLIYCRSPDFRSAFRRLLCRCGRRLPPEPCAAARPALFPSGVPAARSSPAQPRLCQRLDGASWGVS

[23] = target: Serine/threonine-protein kinase 17A (Homo sapiens) (UniProt Q9UEE5); assay: Inhibition of DRAK1(h) at 10.0 µM in the Eurofins Kinase panel; conditions: Compound concentration 10.0 uM
[24] = target: Homeodomain-interacting protein kinase 2 (Homo sapiens) (UniProt Q9H2X6); assay: Inhibition of HIPK2(h) at 10.0 µM in the Eurofins Kinase panel; conditions: Compound concentration 10.0 uM
Sequence of Homeodomain-interacting protein kinase 2 (Homo sapiens) (Q9H2X6 whole entry, looked up): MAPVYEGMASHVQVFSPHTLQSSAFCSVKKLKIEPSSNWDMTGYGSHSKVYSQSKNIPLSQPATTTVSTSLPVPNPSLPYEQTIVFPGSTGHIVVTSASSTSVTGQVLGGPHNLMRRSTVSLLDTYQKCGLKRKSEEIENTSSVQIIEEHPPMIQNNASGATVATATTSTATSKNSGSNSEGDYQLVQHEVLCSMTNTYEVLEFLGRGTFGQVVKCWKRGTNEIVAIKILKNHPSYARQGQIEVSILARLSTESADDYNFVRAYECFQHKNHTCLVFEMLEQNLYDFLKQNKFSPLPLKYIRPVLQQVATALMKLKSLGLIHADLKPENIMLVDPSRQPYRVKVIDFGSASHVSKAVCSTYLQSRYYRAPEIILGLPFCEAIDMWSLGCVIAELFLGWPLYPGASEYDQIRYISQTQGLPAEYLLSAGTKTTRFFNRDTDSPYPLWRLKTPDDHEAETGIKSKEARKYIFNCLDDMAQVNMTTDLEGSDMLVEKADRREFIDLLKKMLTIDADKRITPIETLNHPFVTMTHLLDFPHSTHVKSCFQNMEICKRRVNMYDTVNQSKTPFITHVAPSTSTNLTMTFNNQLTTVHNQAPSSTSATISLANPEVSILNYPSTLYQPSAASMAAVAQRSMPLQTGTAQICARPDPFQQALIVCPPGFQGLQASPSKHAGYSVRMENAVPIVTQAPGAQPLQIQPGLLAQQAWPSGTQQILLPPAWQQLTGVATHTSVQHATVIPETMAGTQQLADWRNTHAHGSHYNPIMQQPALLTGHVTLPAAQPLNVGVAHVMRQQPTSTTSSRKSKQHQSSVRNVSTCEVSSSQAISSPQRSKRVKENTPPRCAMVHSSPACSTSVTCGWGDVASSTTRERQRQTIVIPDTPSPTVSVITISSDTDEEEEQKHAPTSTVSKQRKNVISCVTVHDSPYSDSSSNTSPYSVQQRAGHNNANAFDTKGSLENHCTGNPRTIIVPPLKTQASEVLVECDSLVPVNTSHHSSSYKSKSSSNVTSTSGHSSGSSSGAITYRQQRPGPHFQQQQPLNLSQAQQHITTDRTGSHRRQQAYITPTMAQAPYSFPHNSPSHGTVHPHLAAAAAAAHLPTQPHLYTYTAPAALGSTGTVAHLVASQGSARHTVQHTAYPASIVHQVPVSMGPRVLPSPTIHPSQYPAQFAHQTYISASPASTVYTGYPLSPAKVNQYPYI

[25] = target: Alpha-1B adrenergic receptor (Homo sapiens) (UniProt P35368); conditions: Compound concentration 10.0 uM
Sequence of Alpha-1B adrenergic receptor (Homo sapiens) (P35368 whole entry): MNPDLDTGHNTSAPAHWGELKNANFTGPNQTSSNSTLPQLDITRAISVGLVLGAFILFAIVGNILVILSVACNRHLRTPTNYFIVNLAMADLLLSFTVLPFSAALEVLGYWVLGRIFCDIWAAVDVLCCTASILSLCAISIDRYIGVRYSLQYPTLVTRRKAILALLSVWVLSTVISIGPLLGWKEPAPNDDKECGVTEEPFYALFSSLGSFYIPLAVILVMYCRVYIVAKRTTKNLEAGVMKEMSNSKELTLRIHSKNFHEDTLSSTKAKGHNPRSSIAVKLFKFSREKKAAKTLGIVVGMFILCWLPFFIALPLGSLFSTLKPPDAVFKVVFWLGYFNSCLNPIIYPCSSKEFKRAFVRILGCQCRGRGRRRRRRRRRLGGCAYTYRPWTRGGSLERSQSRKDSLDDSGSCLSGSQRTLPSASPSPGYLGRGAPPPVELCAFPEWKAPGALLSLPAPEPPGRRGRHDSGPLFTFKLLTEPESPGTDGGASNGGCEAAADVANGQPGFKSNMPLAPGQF

[26] = target: Myosin light chain kinase (Homo sapiens) (UniProt Q32MK0); assay: Inhibition of MLCK(h) at 10.0 µM in the Eurofins Kinase panel; conditions: Compound concentration 10.0 uM

Row | SMILES | inhibition [1] | inhibition [2] | inhibition [3] | inhibition [4] | inhibition [5] | inhibition [6] | inhibition [7] | inhibition [8] | inhibition [9] | inhibition [10] | inhibition [11] | inhibition [12] | inhibition [13] | inhibition [14] | inhibition [15] | inhibition [16] | inhibition [17] | inhibition [18] | Ki (Vasopressin V1b receptor) | inhibition [19] | further results
1 | O=c1n(Cc2cncn2-c2cccc(Cl)c2)nc(-c2ccc(Cl)cc2)n1C[C@H](O)C(F)(F)F | -8.39% | -2.41% | 7.51% | 9.44% | 3.57% | -4.73% | -1.4% | -2.77% | -8.29% | 6.76% | 8.26% | -2% | 0% | -5.8% | -9.85% | 6.34% | -4.56% | -1.84% | > 10 µM (not active) | -7.11% | inhibition [20]: -8.53%; Ki (Vasopressin V1a receptor): > 10 µM (not active); inhibition [21]: 3.99%; inhibition [22]: -0.32%; inhibition [23]: -1.37%; inhibition [24]: -9.36%; inhibition [25]: -2.47%; inhibition [26]: 1.74%
2 | C[C@H](O)c1nc(Cn2nc(-c3ccc(Cl)cc3)n(C[C@H](O)C(F)(F)F)c2=O)nn1-c1cccc(Cl)c1 [PECAVAPTAN] | -3.55% | -1.84% | 5.58% | 14.1% | -1.95% | -5.82% | -0.64% | 1.28% | -3.85% | 0.27% | 8.85% | 17.6% | 7% | -4.81% | -2.74% | 1.83% | 0.7% | 6.82% | > 10 µM (not active) | 2.07% | inhibition [20]: -9.34%; Ki (Vasopressin V1a receptor): 0.0005 µM (active); inhibition [21]: 5.13%; inhibition [22]: -1.97%; inhibition [23]: -9.63%; inhibition [24]: -6.27%; inhibition [25]: -5.25%; inhibition [26]: 1.69%

Reference: ChEMBL document CHEMBL5463729, “Data for DCP probe BAY 1753011” (2023)
